How the values were obtained:
[1] = biological target: JAK1 (Homo sapiens (Human), UniProt P23458); assay: JAK1 enzyme activity assay (Thermo Fisher SelectScreen, Z-lyte); assay type: biochemical; conditions: read-out: JAK1 Inhibition IC50
Summary of the method: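 Z-lyte assay with 21.2-91.5 ng JAK and […] Tyr 06 in 50 mM HEPES pH 7.0, 10 mM MgCl2, 1 mM EGTA, 0.01% BRIJ-35; 1 h kinase reaction, then development reagent. 11-point dose-response from […] to 0.34 nM, 2% DMSO vehicle; IC50 from 4-parameter logistic fit of emission ratio.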

[2] = biological target: JAK2 (Homo sapiens (Human), UniProt O60674); assay: JAK2 enzyme activity assay (Thermo Fisher SelectScreen, Z-lyte); assay type: biochemical; conditions: read-out: JAK2 Inhibition IC50
Summary of the method: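 Z-lyte FRET kinase assay: 0.12-0.5 ng JAK2 with […] Tyr 06 peptide in 50 mM HEPES pH 7.5, 0.01% BRIJ-35, 10 mM MgCl2, 1 mM EGTA, 1 h reaction before development reagent. 11-point dose-response from […] to 0.34 nM, 2% DMSO; IC50 from 4-parameter fit of emission ratio.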

[3] = system: IFNγ stimulated STAT1 phosphorylation on Tyr701 (JAK1/2); assay: JAK1/2 cellular target modulation: IFNγ stimulated phospho-STAT1 in PBMC; assay type: cell-based; conditions: human PBMC, IFNγ 10 ng/ml; read-out: Infγ-STAT1 IC50
Summary of the method: (§1)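 Thawed human PBMC (200,000/well, RPMI/10% FBS) were preincubated with compound for 1 h at 37 °C, added from 10× stocks in 1% DMSO. Stimulation and read-out: IL-2 25 ng/ml, 5 min, pSTAT5 by MSD; IL-12 1.7 ng/ml, 25 min, pSTAT4 by MSD; IFNγ 10 ng/ml, 10 min, pSTAT1 by sandwich ELISA.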

[4] = biological target: Tyk-2 (Homo sapiens (Human), UniProt P29597); assay: Tyk-2 enzyme activity assay (Thermo Fisher SelectScreen, Z-lyte); assay type: biochemical; conditions: read-out: Tyk-2 Inhibition IC50
Summary of the method: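 Z-lyte FRET assay: 3.75–15 ng TYK2 with […] Tyr 03 peptide in HEPES pH 7.0, MgCl2, EGTA, BRIJ-35; 1 h reaction, then development reagent. 11-point dose-response, 2% DMSO; IC50 via 4-parameter fit of emission ratio, background without enzyme.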

[5] = system: IL-12 stimulated STAT4 phosphorylation on Tyr693 (JAK2/TYK2); assay: JAK2/TYK2 cellular target modulation: IL-12 stimulated phospho-STAT4 in PBMC; assay type: cell-based; conditions: human PBMC, IL-12 1.7 ng/ml; read-out: IL12-STAT4 IC50
Summary of the method: as §1

[6] = biological target: JAK3 (a.a. 781-1124) (Homo sapiens (Human), UniProt P52333); assay: JAK3 enzyme activity assay (SRCtide phosphorylation, Caliper); assay type: biochemical; conditions: 1 uM ATP; read-out: JAK3 Inhibition IC50
[7] = system: IL-2 stimulated STAT5 phosphorylation on Tyr694 (JAK1/3); assay: JAK1/3 cellular target modulation: IL-2 stimulated phospho-STAT5 in PBMC; assay type: cell-based; conditions: human PBMC, IL-2 25 ng/ml; read-out: IL2-STAT5 IC50
Summary of the method: as §1

Sequence of JAK1 (P23458 whole entry): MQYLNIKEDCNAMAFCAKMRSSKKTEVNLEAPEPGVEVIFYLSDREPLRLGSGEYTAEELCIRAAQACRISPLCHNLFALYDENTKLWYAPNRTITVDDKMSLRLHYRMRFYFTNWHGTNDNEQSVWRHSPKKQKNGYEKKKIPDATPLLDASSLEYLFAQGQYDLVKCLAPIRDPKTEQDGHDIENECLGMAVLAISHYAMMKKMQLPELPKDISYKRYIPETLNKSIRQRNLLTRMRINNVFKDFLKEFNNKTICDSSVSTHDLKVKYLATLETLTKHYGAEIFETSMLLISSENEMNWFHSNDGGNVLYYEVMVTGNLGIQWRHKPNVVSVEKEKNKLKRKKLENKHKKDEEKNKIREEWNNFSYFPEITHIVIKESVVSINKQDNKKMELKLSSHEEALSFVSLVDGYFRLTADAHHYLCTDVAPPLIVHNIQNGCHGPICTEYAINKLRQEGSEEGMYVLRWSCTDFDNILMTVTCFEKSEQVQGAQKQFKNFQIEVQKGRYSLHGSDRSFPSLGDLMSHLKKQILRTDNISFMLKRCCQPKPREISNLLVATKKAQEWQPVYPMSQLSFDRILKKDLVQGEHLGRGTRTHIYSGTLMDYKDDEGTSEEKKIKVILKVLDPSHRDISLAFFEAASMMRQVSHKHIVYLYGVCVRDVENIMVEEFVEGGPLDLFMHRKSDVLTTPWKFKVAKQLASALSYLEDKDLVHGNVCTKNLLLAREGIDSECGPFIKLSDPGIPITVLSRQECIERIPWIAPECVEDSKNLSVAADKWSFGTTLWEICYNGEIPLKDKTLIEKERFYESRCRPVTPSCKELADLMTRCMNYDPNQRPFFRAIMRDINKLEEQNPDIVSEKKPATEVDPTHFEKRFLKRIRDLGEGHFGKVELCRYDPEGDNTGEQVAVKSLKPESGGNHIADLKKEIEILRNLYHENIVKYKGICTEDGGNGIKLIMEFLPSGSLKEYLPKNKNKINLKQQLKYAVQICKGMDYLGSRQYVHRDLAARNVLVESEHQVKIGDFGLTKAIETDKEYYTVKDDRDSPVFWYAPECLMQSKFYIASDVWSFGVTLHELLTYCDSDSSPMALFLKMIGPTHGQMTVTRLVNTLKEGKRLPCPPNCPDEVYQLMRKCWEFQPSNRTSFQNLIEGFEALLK
Sequence of JAK2 (O60674 whole entry): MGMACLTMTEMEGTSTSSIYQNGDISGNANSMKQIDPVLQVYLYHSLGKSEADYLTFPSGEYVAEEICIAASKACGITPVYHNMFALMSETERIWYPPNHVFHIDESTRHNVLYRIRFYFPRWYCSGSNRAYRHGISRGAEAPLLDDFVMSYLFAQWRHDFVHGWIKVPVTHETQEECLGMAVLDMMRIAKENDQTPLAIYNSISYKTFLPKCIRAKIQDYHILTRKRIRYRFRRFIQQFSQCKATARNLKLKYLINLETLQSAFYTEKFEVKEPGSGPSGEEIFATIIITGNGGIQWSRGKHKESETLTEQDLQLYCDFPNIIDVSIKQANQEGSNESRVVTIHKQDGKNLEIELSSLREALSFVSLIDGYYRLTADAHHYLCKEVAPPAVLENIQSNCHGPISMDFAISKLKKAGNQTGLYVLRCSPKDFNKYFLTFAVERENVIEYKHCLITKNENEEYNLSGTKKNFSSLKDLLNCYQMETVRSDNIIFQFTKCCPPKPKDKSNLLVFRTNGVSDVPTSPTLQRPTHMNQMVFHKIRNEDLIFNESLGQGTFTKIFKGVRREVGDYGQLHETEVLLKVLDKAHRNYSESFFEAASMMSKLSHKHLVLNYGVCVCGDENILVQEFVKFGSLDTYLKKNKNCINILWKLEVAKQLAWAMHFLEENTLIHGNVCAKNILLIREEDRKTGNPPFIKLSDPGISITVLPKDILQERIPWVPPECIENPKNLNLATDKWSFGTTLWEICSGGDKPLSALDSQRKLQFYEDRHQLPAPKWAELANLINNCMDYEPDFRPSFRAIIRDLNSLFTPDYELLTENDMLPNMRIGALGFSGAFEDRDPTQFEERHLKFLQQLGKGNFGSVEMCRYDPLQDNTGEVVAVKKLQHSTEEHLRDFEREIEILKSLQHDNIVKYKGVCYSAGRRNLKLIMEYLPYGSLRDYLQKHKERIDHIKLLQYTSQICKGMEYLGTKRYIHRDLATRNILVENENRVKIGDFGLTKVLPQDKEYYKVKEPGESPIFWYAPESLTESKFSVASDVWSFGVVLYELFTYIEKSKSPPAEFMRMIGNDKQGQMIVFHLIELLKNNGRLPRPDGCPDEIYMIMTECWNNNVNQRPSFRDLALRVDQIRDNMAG
Sequence of Tyk-2 (P29597 whole entry): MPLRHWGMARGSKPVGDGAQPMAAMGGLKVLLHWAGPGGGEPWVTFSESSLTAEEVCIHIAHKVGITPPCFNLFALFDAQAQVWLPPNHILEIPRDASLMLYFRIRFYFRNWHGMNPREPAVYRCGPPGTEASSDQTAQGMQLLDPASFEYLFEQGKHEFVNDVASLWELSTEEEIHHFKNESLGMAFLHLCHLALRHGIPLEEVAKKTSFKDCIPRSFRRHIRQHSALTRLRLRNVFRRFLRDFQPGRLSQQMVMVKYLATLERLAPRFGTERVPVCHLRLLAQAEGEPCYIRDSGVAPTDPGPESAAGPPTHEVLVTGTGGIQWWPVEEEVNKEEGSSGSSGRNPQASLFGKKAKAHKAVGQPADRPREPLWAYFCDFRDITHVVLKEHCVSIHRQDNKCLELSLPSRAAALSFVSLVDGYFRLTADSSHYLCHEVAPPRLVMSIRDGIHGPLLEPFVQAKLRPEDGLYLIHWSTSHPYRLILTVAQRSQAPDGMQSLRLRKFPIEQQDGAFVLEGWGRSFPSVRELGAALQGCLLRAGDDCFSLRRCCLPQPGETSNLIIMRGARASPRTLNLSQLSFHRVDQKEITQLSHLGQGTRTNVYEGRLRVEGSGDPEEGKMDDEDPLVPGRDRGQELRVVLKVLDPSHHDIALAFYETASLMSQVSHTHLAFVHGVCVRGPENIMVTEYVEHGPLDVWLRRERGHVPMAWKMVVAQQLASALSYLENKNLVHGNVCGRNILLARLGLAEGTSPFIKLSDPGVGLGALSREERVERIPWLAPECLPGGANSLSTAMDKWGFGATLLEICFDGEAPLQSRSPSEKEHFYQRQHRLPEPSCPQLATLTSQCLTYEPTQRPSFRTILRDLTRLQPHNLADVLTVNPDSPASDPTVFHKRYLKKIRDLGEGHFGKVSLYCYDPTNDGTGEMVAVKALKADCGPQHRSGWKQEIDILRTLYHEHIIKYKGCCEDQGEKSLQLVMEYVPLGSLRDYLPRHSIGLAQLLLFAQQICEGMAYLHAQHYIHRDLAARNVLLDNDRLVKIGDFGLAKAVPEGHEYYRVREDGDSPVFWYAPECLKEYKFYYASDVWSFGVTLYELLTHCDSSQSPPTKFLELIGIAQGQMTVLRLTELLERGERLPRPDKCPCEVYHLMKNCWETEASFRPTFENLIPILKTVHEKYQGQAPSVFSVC
Sequence of JAK3 (a.a. 781-1124) (P52333 781-1124): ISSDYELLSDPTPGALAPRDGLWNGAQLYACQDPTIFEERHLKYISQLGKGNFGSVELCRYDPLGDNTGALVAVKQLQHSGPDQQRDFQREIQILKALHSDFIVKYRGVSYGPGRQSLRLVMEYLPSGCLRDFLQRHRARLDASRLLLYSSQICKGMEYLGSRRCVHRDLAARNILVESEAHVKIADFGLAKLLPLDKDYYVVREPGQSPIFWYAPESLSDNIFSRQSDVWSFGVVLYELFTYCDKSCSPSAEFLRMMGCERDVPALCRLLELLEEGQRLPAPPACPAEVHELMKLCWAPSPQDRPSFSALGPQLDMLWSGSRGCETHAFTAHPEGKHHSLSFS

SMILES | IC50 [1] [nM] | IC50 [2] [nM] | IC50 [3] [nM] | IC50 [4] [nM] | IC50 [5] [nM] | IC50 [6] [nM] | IC50 [7] [nM]
C[S+]([O-])c1cnc(-c2cnc3[nH]ccc3c2N[C@@H]2CCCN(C(=O)CC#N)C2)s1 (stereo partly drawn) [Example 45, 3-((3R)-3-((5-(5-(methylsulfinyl)thiazol-2-yl)-1H-pyrrolo[2,3-b]pyridin-4-yl)amino)piperidin-1-yl)-3-oxopropanenitrile] | ≤ 10 | ≤ 10 | 100 to 1000 | ≤ 10 | > 1000 | ≤ 10 | 100 to 1000
CS(=O)(=O)c1cnc(-c2cnc3[nH]ccc3c2N[C@@H]2CCCN(C(=O)CC#N)C2)s1 [Example 46, (R)-3-(3-((5-(5-(methylsulfonyl)thiazol-2-yl)-1H-pyrrolo[2,3-b]pyridin-4-yl)amino)piperidin-1-yl)-3-oxopropanenitrile] | ≤ 10 | ≤ 10 | ≤ 100 | ≤ 10 | 100 to 1000 | ≤ 10 | ≤ 100
CS(=O)(=O)c1cnc(-c2cnc3[nH]ccc3c2N[C@@H]2CCCN(CCC#N)C2)s1 [Example 47, (R)-3-(3-((5-(5-(methylsulfonyl)thiazol-2-yl)-1H-pyrrolo[2,3-b]pyridin-4-yl)amino)piperidin-1-yl)propanenitrile] | 10 to 100 | 10 to 100 | > 1000 | 10 to 100 | > 1000 | 10 to 100 | 100 to 1000
N#CCC(=O)N1CCC[C@@H](Nc2c(-c3ccnc(N)n3)cnc3[nH]ccc23)C1 [Example 51, (R)-3-(3-((5-(2-aminopyrimidin-4-yl)-1H-pyrrolo[2,3-b]pyridin-4-yl)amino)piperidin-1-yl)-3-oxopropanenitrile] | ≤ 10 | ≤ 10 | 100 to 1000 | 10 to 100 | > 1000 | ≤ 10 | 100 to 1000
Cc1nccc(-c2cnc3[nH]ccc3c2N[C@@H]2C[C@H](C)CN(C(=O)CC#N)C2)n1 [Example 52, 3-((3S,5R)-3-methyl-5-((5-(2-methylpyrimidin-4-yl)-1H-pyrrolo[2,3-b]pyridin-4-yl)amino)piperidin-1-yl)-3-oxopropanenitrile] | ≤ 10 | ≤ 10 | ≤ 100 | ≤ 10 | 100 to 1000 | ≤ 10 | ≤ 100
CS(=O)(=O)c1ccc(-c2cnc3[nH]ccc3c2N[C@@H]2CCCN(C(=O)CC#N)C2)nc1 [Example 55, (R)-3-(3-((5-(5-(methylsulfonyl)pyridin-2-yl)-1H-pyrrolo[2,3-b]pyridin-4-yl)amino)piperidin-1-yl)-3-oxopropanenitrile] | ≤ 10 | 10 to 100 | 100 to 1000 | ≤ 10 | > 1000 | ≤ 10 | ≤ 100
N#CCC(=O)N1CCC[C@@H](Nc2c(-c3cccc(CO)n3)cnc3[nH]ccc23)C1 [Example 63] | ≤ 10 | ≤ 10 | 100 to 1000 | 10 to 100 | > 1000 | ≤ 10 | ≤ 100
C[C@H]1C[C@@H](Nc2c(-c3ncc(S(C)(=O)=O)s3)cnc3[nH]ccc23)CN(C(=O)CC#N)C1 [Example 65, 3-((3S,5R)-3-methyl-5-((5-(5-(methylsulfonyl)thiazol-2-yl)-1H-pyrrolo[2,3-b]pyridin-4-yl)amino)piperidin-1-yl)-3-oxopropanenitrile] | ≤ 10 | ≤ 10 | ≤ 100 | ≤ 10 | ≤ 100 | ≤ 10 | ≤ 100
C[C@H]1C[C@@H](Nc2c(-c3nncs3)cnc3[nH]ccc23)CN(C(=O)CC#N)C1 [Example 68, 3-((3R,5S)-3-((5-(1,3,4-thiadiazol-2-yl)-1H-pyrrolo[2,3-b]pyridin-4-yl)amino)-5-methylpiperidin-1-yl)-3-oxopropanenitrile] | ≤ 10 | ≤ 10 | ≤ 100 | ≤ 10 | ≤ 100 | ≤ 10 | ≤ 100

Next, values leading:

IC50 [1] [nM] | IC50 [2] [nM] | IC50 [3] [nM] | IC50 [4] [nM] | IC50 [5] [nM] | IC50 [6] [nM] | IC50 [7] [nM] | SMILES
≤ 10 | 10 to 100 | 100 to 1000 | 10 to 100 | > 1000 | 10 to 100 | ≤ 100 | CS(=O)(=O)c1cnc(-c2cnc3[nH]ccc3c2N[C@@H]2CCCN(C(=O)CC#N)C2)o1 [Example 48, (R)-3-(3-((5-(5-(methylsulfonyl)oxazol-2-yl)-1H-pyrrolo[2,3-b]pyridin-4-yl)amino)piperidin-1-yl)-3-oxopropanenitrile]
≤ 10 | 10 to 100 | ≤ 100 | 10 to 100 | > 1000 | ≤ 10 | ≤ 100 | CSc1nccc(-c2cnc3[nH]ccc3c2N[C@@H]2CCCN(C(=O)CC#N)C2)n1 [Example 49, (R)-3-(3-((5-(2-(methylthio)pyrimidin-4-yl)-1H-pyrrolo[2,3-b]pyridin-4-yl)amino)piperidin-1-yl)-3-oxopropanenitrile]
≤ 10 | ≤ 10 | 100 to 1000 | 10 to 100 | > 1000 | ≤ 10 | ≤ 100 | N#CCC(=O)N1CCC[C@@H](Nc2c(-c3ccn(CCO)n3)cnc3[nH]ccc23)C1 [Example 62, (R)-3-(3-((5-(1-(2-hydroxyethyl)-1H-pyrazol-3-yl)-1H-pyrrolo[2,3-b]pyridin-4-yl)amino)piperidin-1-yl)-3-oxopropanenitrile]
≤ 10 | ≤ 10 | ≤ 100 | ≤ 10 | > 1000 | ≤ 10 | ≤ 100 | C[C@H]1C[C@@H](Nc2c(-c3cccc(CO)n3)cnc3[nH]ccc23)CN(C(=O)CC#N)C1 [Example 64, 3-((3R,5S)-3-((5-(6-(hydroxymethyl)pyridin-2-yl)-1H-pyrrolo[2,3-b]pyridin-4-yl)amino)-5-methylpiperidin-1-yl)-3-oxopropanenitrile]
10 to 100 | 10 to 100 | 100 to 1000 | 10 to 100 | > 1000 | ≤ 10 | 100 to 1000 | C[C@H]1C[C@@H](Nc2c(-c3nccs3)cnc3[nH]ccc23)CN(CC2CC2(F)F)C1 (stereo partly drawn) [Example 67, N-((3R,5S)-1-((2,2-difluorocyclopropyl)methyl)-5-methylpiperidin-3-yl)-5-(thiazol-2-yl)-1H-pyrrolo[2,3-b]pyridin-4-amine]

Source: patent publication US11420966B2 (ACLARIS THERAPEUTICS, INC., priority 2019, dated 2022)
